Measured values published in PubChem BioAssay AID504473 (NMMLSC, 2011).
The source made the active and inactive calls.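 The calls were made as follows: active = GFP ratio to DMSO above 1.5 or below 0.66; inactive = the rest.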

Columns and labels:
Assay in all cases: expression changes of rapamycin-responsive GFP fusion proteins, S. cerevisiae, GFP-tagged clone panel, flow cytometry (AID 504473);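 also: median GFP fluorescence of the cells measured by high-throughput flow cytometry; test concentration not given here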
Details in all cases: S. cerevisiae GFP-tagged strains, 3 h
YEL071W = test system: YEL071W
YOR173W = test system: YOR173W
YGL147C = test system: YGL147C
YGR034W = test system: YGR034W
YOL052C-A = test system: YOL052C-A
YPR145W = test system: YPR145W
YGL135W = test system: YGL135W
YBR072W = test system: YBR072W
YNL112W = test system: YNL112W
YEL063C = test system: YEL063C
YFR053C = test system: YFR053C
YDR453C = test system: YDR453C
YGL036W = test system: YGL036W
YLL039C = test system: YLL039C
YIL043C = test system: YIL043C
YPL265W = test system: YPL265W
YOR063W = test system: YOR063W
YGR088W = test system: YGR088W
YJL056C = test system: YJL056C
YNL068C = test system: YNL068C
YKL119C = test system: YKL119C
YIL069C = test system: YIL069C
YDL204W = test system: YDL204W
YOR038C = test system: YOR038C
YJR148W = test system: YJR148W
YBR139W = test system: YBR139W
YNL142W = test system: YNL142W
YDR382W = test system: YDR382W
YKR094C = test system: YKR094C
YGR019W = test system: YGR019W
YIL066C = test system: YIL066C
YEL007W = test system: YEL007W
YKL086W = test system: YKL086W
YLR367W = test system: YLR367W
YOR371C = test system: YOR371C
YPL150W = test system: YPL150W
YLR142W = test system: YLR142W
YGL062W = test system: YGL062W
YML026C = test system: YML026C
YHR144C = test system: YHR144C
YIL052C = test system: YIL052C
YHL021C = test system: YHL021C
YPR132W = test system: YPR132W
YNR001C = test system: YNR001C
YML063W = test system: YML063W
YKR093W = test system: YKR093W
YNL214W = test system: YNL214W
YER151C = test system: YER151C

CNc1nc(N)c([N+](=O)[O-])c(Nc2ccccc2OC)n1
GFP ratio to DMSO (YEL071W): 0.904 (inactive)
GFP ratio to DMSO (YOR173W): 0.726 (inactive)
GFP ratio to DMSO (YGL147C): 0.902 (inactive)
GFP ratio to DMSO (YGR034W): 0.607
GFP ratio to DMSO (YOL052C-A): 2.31
GFP ratio to DMSO (YPR145W): 0.81 (inactive)
GFP ratio to DMSO (YGL135W): 1.01 (inactive)
GFP ratio to DMSO (YBR072W): 3.23
GFP ratio to DMSO (YNL112W): 0.867 (inactive)
GFP ratio to DMSO (YEL063C): 0.998 (inactive)
GFP ratio to DMSO (YFR053C): 0.642
GFP ratio to DMSO (YDR453C): 5.92
GFP ratio to DMSO (YGL036W): 0.643
GFP ratio to DMSO (YLL039C): 0.576
GFP ratio to DMSO (YIL043C): 0.829 (inactive)
GFP ratio to DMSO (YPL265W): 0.542
GFP ratio to DMSO (YOR063W): 0.813 (inactive)
GFP ratio to DMSO (YGR088W): 0.767 (inactive)
GFP ratio to DMSO (YJL056C): 0.664 (inactive)
GFP ratio to DMSO (YNL068C): 0.738 (inactive)
GFP ratio to DMSO (YKL119C): 0.774 (inactive)
GFP ratio to DMSO (YIL069C): 0.717 (inactive)
GFP ratio to DMSO (YDL204W): 0.703 (inactive)
GFP ratio to DMSO (YOR038C): 0.771 (inactive)
GFP ratio to DMSO (YJR148W): 0.822 (inactive)
GFP ratio to DMSO (YBR139W): 0.664 (inactive)
GFP ratio to DMSO (YNL142W): 0.756 (inactive)
GFP ratio to DMSO (YDR382W): 0.349
GFP ratio to DMSO (YKR094C): 0.863 (inactive)
GFP ratio to DMSO (YGR019W): 0.679 (inactive)
GFP ratio to DMSO (YIL066C): 0.693 (inactive)
GFP ratio to DMSO (YEL007W): 0.721 (inactive)
GFP ratio to DMSO (YKL086W): 0.777 (inactive)
GFP ratio to DMSO (YLR367W): 0.847 (inactive)
GFP ratio to DMSO (YOR371C): 0.67 (inactive)
GFP ratio to DMSO (YPL150W): 0.677 (inactive)
GFP ratio to DMSO (YLR142W): 0.7 (inactive)
GFP ratio to DMSO (YGL062W): 0.915 (inactive)
GFP ratio to DMSO (YML026C): 1.64
GFP ratio to DMSO (YHR144C): 0.68 (inactive)
GFP ratio to DMSO (YIL052C): 0.379
GFP ratio to DMSO (YHL021C): 0.726 (inactive)
GFP ratio to DMSO (YPR132W): 1.76
GFP ratio to DMSO (YNR001C): 0.75 (inactive)
GFP ratio to DMSO (YML063W): 0.482
GFP ratio to DMSO (YKR093W): 0.526
GFP ratio to DMSO (YNL214W): 0.786 (inactive)
GFP ratio to DMSO (YER151C): 0.745 (inactive)
